For orientation: IC50 means the concentration that gives 50% inhibition.

This passage reports IC50 results from patent US20240150321A1, “PYRAZOLYLSULFONAMIDE COMPOUNDS AND THEIR USE IN THERAPY” (HOTSPOT THERAPEUTICS, INC., priority 2022, published 2024).

In experiment [1] the test system is NF-kB reporter in Jurkat cells. Kind of experiment: NF-kB reporter assay in Jurkat cells stimulated with aCD3/aCD28/PMA. The note with it: read-out: NF-kB Reporter Assay IC50. It counts as cell-based. As to the method:
Jurkat cells were maintained in complete RPMI 1640 media supplemented with 10% FBS. Prior to the assay, 120 nL of the serial diluted compound was added in each well of 384-well flat bottom white plate (Corning #3570) by using liquid handler Echo550. Jurkat cells were harvested by centrifugation at 120 g for 10 min and resuspended in fresh RPMI 1640 media without serum. […] (25,000 cells) were seeded in each well of 384-well plate containing compound. After 1 hr incubation at 37° C. in a 5% CO2 incubator, […] of diluted aCD3/aCD28/PMA (final concentration at […] and […], respectively) in RPMI 1640 without serum were added to each well. After incubation at 37° C. in 5% CO2 for 4 hr, […] of One-Glo reagent (Promega #E6120) was added into each well. The plate was left at room temperature for 5 min and the signal was measured on EnVision (PerkinElmer).
Compounds in which an IC50 was not measured are designated as “N/A”.
(A reporter such as luciferase makes a cellular process visible.)

The next experiment concerns the target Avi-tagged FL MALT-1 (Homo sapiens (Human), UniProt Q9UDY8). Nature of the experiment: MALT-1 Fluorogenic Peptide Cleavage Assay (MALT1 inhibition assay). It counts as biochemical. The note with it: Ac-LRSR-AMC peptide substrate, 30 min pre-incubation, 90 min reaction at room temperature. The method, then:
Inhibition of MALT1 activity by the presence of small molecules was evaluated using MALT-1 Fluorogenic Peptide Cleavage Assay. The assay utilizes a quenched AMC-labelled peptide that contains the MALT-1 recognition sequence and cleavage site (LRSR). MALT-1 mediated cleavage of the peptide relieves the quenching and leads to an increase in fluorescence at excitation (342 nm) and emission (441 nm).
The following reagents were obtained commercially and used to prepare standard reagent formulations as further described below: N-2-hydroxyethylpiperazine-N-2-ethane sulfonic acid (HEPES) (1 M, pH 7.5, stored at 4° C.), sodium citrate (stored at RT), tris(2-carboxyethyl) phosphine hydrochloride (T-CEP) (500 mM, stored at −20° C.), ethylenediaminetetraacetic acid (EDTA) (500 mM, stored at RT), dimethylsulfoxide (DMSO, stored at RT), 3-[(3-cholamido-propyl)dimethylammonio]-1-propane sulphate (CHAPS) (stored at RT), dimethylsulfoxide (DMSO), DMSO (Fisher Scientific, stored at RT), Avi-tagged FL MALT-1 (Pharmaron, stored at −70° C.), Ac-LRSR-AMC Peptide (SM Biochemicals, stored at −20° C.)., and ultrapure water (MILLLI-Q©).
The standard reagent formulations used in this assay were prepared and stored as follows. A 1.1 M solution of sodium citrate (161.3 g, 500 mL) was prepared and stored at room temperature. A 10% (w/v) CHAPS solution (2.0 g, 20 mL) was prepared and stored at 4° C. A 500 mM HEPES solution having pH of 6.89 was prepared from 200 mL of a 1 M HEPES solution having a pH of 7.5 using concentrated hydrochloric acid and brought to a final volume of 400 mL with MILLI-Q© H2O. The substrate, 10 mM Ac-LRSR-AMC Peptide, was prepared (10 mg, 1.370 mL DMSO) and stored at −20° C.
Compounds were plated to provide a 2% DMSO final concentration using a ProxiPlate-384 Plus F Black 384-shallow well microplate. The assay-ready plates were equilibrated to room temperature. A reaction buffer (30 mL total volume) was prepared by combining HEPES (pH 6.89, 25 mM, 1.5 mL), sodium citrate (660 mM, 18.0 mL), T-CEP (1 mM, 0.06 mL), EDTA ([…], 0.06 mL), CHAPS (0.05%, 0.15 mL), DMSO (2%, 0.6 mL), and MILLI-Q© H2O (10.23 mL; 9.63 mL when backfilled to 2% DMSO) followed by thorough mixing. DMSO was added only when compound plates had not been DMSO-backfilled to 2%.
MALT-1 was thawed and kept on ice. Peptide substrate was thawed on the bench under ambient conditions. A MALT-1 enzyme working stock was prepared from Avi-tagged FL MALT-1 (40 nM in a prepared reagent volume of 16.5 μL) and the reaction buffer (13.0 mL). MALT1 working stock (5 μL) was added to each well of the microplate. MALT-1 was pre-incubated with compounds for 30 minutes at room temperature.
Two substrate working stocks (Km and 10×Km) were prepared. The 1×Km substrate was prepared from Ac-LRSR-AMC Peptide (50 μM in a prepared reagent volume of 35.0 μL) and the reaction buffer (6.965 mL). The 10×Km substrate was prepared from Ac-LRSR-AMC Peptide (280 μM in a prepared reagent volume of 196.0 μL) and the reaction buffer (6.804 mL). The reaction was initiated by the addition of substrate working stock (5 μL, 50 μM) to Km plates and the addition of substrate working stock (5 μL 280 μM) to 10×Km plates. The plates were covered and incubated on the bench at room temperature for 90 minutes.
Fluorescence intensity was determined using a CLARIOstar microplate reader (BMG LABTECH) using the optimised AMC mode. Before taking readings, a 70% gain was applied on the neutral control well. Compound data were normalised to % Inhibition and used to plot sigmoidal concentration response curves to yield various parameters including IC50.

Setting [2] is: Homo sapiens, Jurkat cells, 1 hr compound pre-incubation, aCD3/aCD28/PMA stimulation 4 hr, One-Glo readout.

Structures are written as SMILES. Like-named read-outs stand apart in the source and are kept apart here. Some results are limits rather than exact numbers.

Avi-tagged FL MALT-1, sequence (Q9UDY8 whole entry): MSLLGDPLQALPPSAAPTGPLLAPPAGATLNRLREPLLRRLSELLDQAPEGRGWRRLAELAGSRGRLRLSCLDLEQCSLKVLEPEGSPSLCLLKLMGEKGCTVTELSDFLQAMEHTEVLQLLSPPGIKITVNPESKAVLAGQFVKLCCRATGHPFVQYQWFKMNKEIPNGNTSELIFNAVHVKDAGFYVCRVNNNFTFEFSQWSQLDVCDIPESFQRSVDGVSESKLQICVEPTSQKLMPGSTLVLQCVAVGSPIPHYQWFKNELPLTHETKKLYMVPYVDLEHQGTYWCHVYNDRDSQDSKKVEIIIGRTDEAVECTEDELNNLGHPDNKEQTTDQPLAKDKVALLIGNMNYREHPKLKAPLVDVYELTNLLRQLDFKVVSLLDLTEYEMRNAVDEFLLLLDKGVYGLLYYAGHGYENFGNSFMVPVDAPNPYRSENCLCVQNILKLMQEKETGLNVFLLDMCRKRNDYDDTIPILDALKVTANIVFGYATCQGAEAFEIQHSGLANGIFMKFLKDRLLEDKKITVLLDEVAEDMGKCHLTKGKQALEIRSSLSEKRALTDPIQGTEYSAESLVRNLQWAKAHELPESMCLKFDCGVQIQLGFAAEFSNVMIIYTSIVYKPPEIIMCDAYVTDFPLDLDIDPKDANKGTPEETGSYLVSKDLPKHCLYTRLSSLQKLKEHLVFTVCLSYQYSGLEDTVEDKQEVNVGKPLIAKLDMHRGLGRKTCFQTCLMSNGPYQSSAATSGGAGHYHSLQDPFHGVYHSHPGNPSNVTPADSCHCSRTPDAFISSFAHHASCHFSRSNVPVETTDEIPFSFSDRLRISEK

With `COC1(c2ccnc(-n3cc(S(=O)(=O)Nc4cccc5cnn(C)c45)cn3)c2)CCOCC1` [Compound I-131, 1-(4-(4-methoxytetrahydro-2H-pyran-4-yl)pyridin-2-yl)-N-(1-methyl-1H-indazol-7-yl)-1H-pyrazole-4-sulfonamide], the results for the IC50 (in experiment [1] (setting [2]); at Avi-tagged FL MALT-1) were < 400 nM and > 2500 nM, respectively.

Take `Cn1ncc2cccc(NS(=O)(=O)c3cnn(-c4cc(C(F)(F)F)c(Cl)cn4)c3)c21` [Compound I-121, 1-(5-Chloro-4-(Trifluoromethyl)Pyridin-2-yl)-N-(1-Methyl-1H-Indazol-7-yl)-1H-Pyrazole-4-Sulfonamide]: the half-inhibitory concentration (IC50) in experiment [1] (setting [2]) is < 400 nM; against Avi-tagged FL MALT-1, 400 to 1000 nM.

As for `CCc1ccc2[nH]nc(C)c2c1N(C)S(=O)(=O)c1cnn(-c2cc(C)ccn2)c1` [Compound I-78, N-(5-Ethyl-3-Methyl-1H-Indazol-4-yl)-N-Methyl-1-(4-Methylpyridin-2-yl)Pyrazole-4-Sulfonamide], the IC50 in experiment [1] (setting [2]) was 400 to 1000 nM; on Avi-tagged FL MALT-1, ≤ 400 nM.

`Cn1ncc2cccc(NS(=O)(=O)c3cnn(-c4cc(C5(C#N)COC5)ccn4)c3)c21` [Compound I-483]: the IC50 is < 400 nM in experiment [1] (setting [2]) and > 2500 nM against Avi-tagged FL MALT-1.

Regarding `COC1(c2ccnc(-n3cc(S(=O)(=O)Nc4cccc5cnn(C)c45)cn3)c2)CC(C)C1` (stereo not drawn) [Compound I-363, 1-(4-(1-methoxy-3-methylcyclobutyl)pyridin-2-yl)-N-(1-methyl-1H-indazol-7-yl)-1H-pyrazole-4-sulfonamide], the IC50 in experiment [1] (Jurkat cells, 1 hr compound pre-incubation, aCD3/aCD28/PMA stimulation 4 hr, One-Glo readout) is < 400 nM; against Avi-tagged FL MALT-1, > 2500 nM.

Regarding `COc1ccc2cnn(C)c2c1NS(=O)(=O)c1cnn(-c2cnc3n2CCOC3)c1` [Compound I-475, 1-(5,6-dihydro-8H-imidazo[2,1-c][1,4]oxazin-3-yl)-N-(6-methoxy-1-methyl-1H-indazol-7-yl)-1H-pyrazole-4-sulfonamide], the IC50 (in experiment [1] (setting [2]); against Avi-tagged FL MALT-1) was > 2500 nM in each case.

For `Cn1ncc2cccc(NS(=O)(=O)c3cnn(-c4cc(C5(C#N)CC5)ccn4)c3)c21` [Compound I-469, 1-(4-(1-cyanocyclopropyl)pyridin-2-yl)-N-(1-methyl-1H-indazol-7-yl)-1H-pyrazole-4-sulfonamide], the IC50 in experiment [1] (Homo sapiens, Jurkat) was < 400 nM; at Avi-tagged FL MALT-1 it was > 2500 nM.

Take `Cn1ncc2cccc(NS(=O)(=O)c3cnn(-c4cc(C(C)(C)C#N)ccn4)c3)c21` [Compound I-382, 1-(4-(2-cyanopropan-2-yl)pyridin-2-yl)-N-(1-methyl-1H-indazol-7-yl)-1H-pyrazole-4-sulfonamide]: the IC50 in experiment [1] (setting [2]) was < 400 nM; at Avi-tagged FL MALT-1, > 2500 nM.

With `Cn1ncc2cccc(NS(=O)(=O)c3cnn(-c4cc([C@@]5(F)CCOC5)ccn4)c3)c21` [Compound I-334], the IC50 in experiment [1] (setting [2]) was < 400 nM; against Avi-tagged FL MALT-1, > 2500 nM.

With `COC1CN(c2ccnc(-n3cc(S(=O)(=O)Nc4cccc5cnn(C)c45)cn3)c2)C1` [Compound I-441, 1-(4-(3-methoxyazetidin-1-yl)pyridin-2-yl)-N-(1-methyl-1H-indazol-7-yl)-1H-pyrazole-4-sulfonamide], the IC50 in experiment [1] (setting [2]) is < 400 nM; on Avi-tagged FL MALT-1 it was > 2500 nM.

As to `COCCn1ncc2cccc(NS(=O)(=O)c3cnn(-c4cc(C5CC5)ccn4)c3)c21` [Compound I-102, 1-(4-cyclopropylpyridin-2-yl)-N-(1-(2-methoxyethyl)-1H-indazol-7-yl)-1H-pyrazole-4-sulfonamide], the IC50 (in experiment [1] (setting [2]); against Avi-tagged FL MALT-1) was > 2500 nM in each case.

With `CCc1ccc2cnn(C)c2c1NS(=O)(=O)c1cnn(-c2ccnc(C(F)(F)F)c2)n1` [Compound I-28, N-(6-Ethyl-1-Methyl-1H-Indazol-7-yl)-2-(2-(Trifluoromethyl) Pyridin-4-yl)-2H-1,2,3-Triazole-4-Sulfonamide], the figures for the IC50 (in experiment [1] (setting [2]); at Avi-tagged FL MALT-1) were 400 to 1000 nM and ≤ 400 nM, respectively.

As to `Cn1ncc2cccc(NS(=O)(=O)c3cnn(-c4cc(N5CCCC5)ccn4)c3)c21` [Compound I-249, N-(1-methyl-1H-indazol-7-yl)-1-(4-(pyrrolidin-1-yl)pyridin-2-yl)-1H-pyrazole-4-sulfonamide], the results for the IC50 (in experiment [1] (setting [2]); against Avi-tagged FL MALT-1) were < 400 nM and > 2500 nM, respectively.

Consider `COC[C@H](OC)c1ccnc(-n2cc(S(=O)(=O)Nc3cccc4cnn(C)c34)cn2)c1` [Compound I-342], for which the IC50 in experiment [1] (setting [2]) is 400 to 1000 nM; on Avi-tagged FL MALT-1, > 2500 nM.

With `Cc1ncn2cccc(NS(=O)(=O)c3cnn(-c4cc(C(F)(F)F)ccn4)c3)c12` [Compound I-95, N-(1-methylimidazo[1,5-a]pyridin-8-yl)-1-(4-(trifluoromethyl)pyridin-2-yl)-1H-pyrazole-4-sulfonamide], the figures for the IC50 (in experiment [1] (setting [2]); against Avi-tagged FL MALT-1) were < 400 nM and > 2500 nM, respectively.

Consider `CCc1ccc2[nH]nc(C)c2c1NS(=O)(=O)c1cnn(-c2ccnc(C(F)(F)F)c2)c1` [Compound I-39, N-(5-Ethyl-3-Methyl-1H-Indazol-4-yl)-1-(2-(Trifluoromethyl) Pyridin-4-yl)-1H-Pyrazole-4-Sulfonamide], for which the IC50 in experiment [1] (setting [2]) is < 400 nM; at Avi-tagged FL MALT-1 it was ≤ 400 nM.

`Cn1ncc2cccc(NS(=O)(=O)c3cnn(-c4cc(C5(O)CCOC5)ccn4)c3)c21` (stereo in doubt) [Compound I-310, (S)-1-(4-(3-hydroxytetrahydrofuran-3-yl)pyridin-2-yl)-N-(1-methyl-1H-indazol-7-yl)-1H-pyrazole-4-sulfonamide]: the IC50 in experiment [1] (setting [2]) was < 400 nM; against Avi-tagged FL MALT-1 it was > 2500 nM.

Consider `COc1ccc2cnn(C)c2c1NS(=O)(=O)c1cnn(-c2cc([C@H](C)N3CCCCC3)ccn2)c1` [Compound I-462, (S)—N-(6-Methoxy-1-Methyl-1H-Indazol-7-yl)-1-(4-(1-(Piperidin-1-yl)Ethyl)Pyridin-2-yl)-1H-Pyrazole-4-Sulfonamide], for which the IC50 in experiment [1] (setting [2]) was < 400 nM; against Avi-tagged FL MALT-1 it was > 2500 nM.

For the molecule `CN1CCC(n2cc(S(=O)(=O)Nc3cccc4cnn(C)c34)cn2)CC1` [Compound I-345], the IC50 in experiment [1] (setting [2]) was 400 to 1000 nM; against Avi-tagged FL MALT-1 it was > 2500 nM.

`COC1(c2ccnc(-n3cc(S(=O)(=O)Nc4cccc5cnn(C)c45)cn3)c2)CN(C(C)=O)C1` [Compound I-254]: the IC50 was 1000 to 2500 nM in experiment [1] (setting [2]) and > 2500 nM against Avi-tagged FL MALT-1.

Turning to `COC1(c2ccnc(-n3cc(S(=O)(=O)Nc4cccc5cnn(C)c45)cn3)c2)CC(C)(C)C1` [Compound I-478, 1-(4-(1-methoxy-3,3-dimethylcyclobutyl)pyridin-2-yl)-N-(1-methyl-1H-indazol-7-yl)-1H-pyrazole-4-sulfonamide], the IC50 was < 400 nM in experiment [1] (setting [2]) and > 2500 nM at Avi-tagged FL MALT-1.
